Laboratory results taken from US5189169A (priority 1991, dated 1993).
Several values for one entry are separate records, joined by “and”; a condition that tells them apart may be missing. Equal entries are not always repeated.

Tests used:
[1] = test system: three grassy weeds (wild oat, watergrass, foxtail); set-up: species or system Avena fatua, Echinochloa crusgalli, Setaria viridis; settings: in vivo
[2] = test system: three broadleaf weeds (morning glory, mustard, velvetleaf); set-up: species or system Ipomoea purpurea, Brassica kaber, Abutilon theophrasti; settings: in vivo
[3] = test system: three broadleaf weeds (morning glory, mustard, velvetleaf); set-up: species or system Ipomoea purpurea, Brassica kaber, Abutilon theophrasti; settings: in vivo; remark: listed apart in the source
[4] = test system: three grassy weeds (wild oat, watergrass, foxtail); set-up: species or system Avena fatua, Echinochloa crusgalli, Setaria viridis; settings: in vivo; remark: listed apart in the source
yellow nutsedge [5] = test system: yellow nutsedge; set-up: species or system Cyperus esculentus; settings: in vivo
yellow nutsedge [6] = test system: yellow nutsedge; set-up: species or system Cyperus esculentus; settings: in vivo; remark: listed apart in the source
[7] = test system: four grassy weeds: wild oat, watergrass, green foxtail and crabgrass; assay: Post-emergence herbicidal activity, grassy weeds (Table III); type: in vivo; settings: 2.24 kg/ha, 2-3 weeks after treatment
Outline: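 Sprayed at 3.57 lb/A (4 kg/ha), some compounds at 2 lb/acre (2.24 kg/ha), from acetone–water with emulsifier; post-emergence flats seeded 12 days, pre-emergence flats 1 day before treatment. Visual % control versus untreated check (0 = no effect, 100 = complete kill), rated 2–3 weeks after treatment.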

[8] = test system: three broadleaf weeds: wild mustard, redroot pigweed and curly dock; assay: Post-emergence herbicidal activity, broadleaf weeds (Table III); type: in vivo, Brassica kaber, Amaranthus retroflexus, Rumex crispus; settings: 2.24 kg/ha, 2-3 weeks after treatment
Outline: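 Flats sprayed at 3.57 lb/A (4 kg/ha), or 2 lb/acre (2.24 kg/ha) for a later compound set, in 80 gal/A; pre-emergence flats seeded 1 day, post-emergence 12 days before treatment. Control visually scored 0-100% versus untreated flats, 2-3 weeks after treatment.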

[9] = test system: four grassy weeds: wild oat, watergrass, green foxtail and crabgrass; assay: Pre-emergence herbicidal activity, grassy weeds (Table III); type: in vivo; settings: 2.24 kg/ha, 2-3 weeks after treatment
Method: (§1) The herbicidal effect was observed by comparing the extent of weed control in test flats treated with the compounds against that occurring in similar non-treated control flats. All were applied at 3.57 lb/A (4 kg/ha) to pre-emergence and post-emergence screening flats. An 80 gal/A (748.3 1/ha) spray volume was utilized. Post-emergence flats were seeded 12 days prior to treatment. Pre-emergence flats were seeded one day prior to treatment. Overhead watering of pre-emergence flats and soil surface watering of post-emergence flats, so as to avoid wetting the foliage, were carried out for the duration of the test.
(§2) Weed seeds were planted in a flat at a seed depth of 0.5 inch (1.3 cm). Soil for flats was prepared using loam soil fortified with 17-17-17 fertilizer (N-P2 O5 -K2 O on a weight basis) and Captan 80W fungicide. The test weeds were as follows:
(§3) The spray solutions were prepared by dissolving 240 mg of test compound in 20 ml of acetone containing 1% polyoxyethylene sorbitan monolaurate emulsifier, then adding 20 ml of water to the resulting solution. The spray solutions were applied using a linear spray table. Pre-emergence flats are raised to the level of the post-emergence foliage canopy by setting the flats on a wooden block.
(§4) The degree of weed control was visually assessed and recorded as percentage control compared to the growth of the same species in an untreated check flat of the same age. The rating scale ranges from 0 to 100%, where 0 equals no effect with plant growth equal to the untreated control, and 100 equals complete kill.
(§5) Compounds 68 to 145 in Table I were tested generally similarly to Compounds No. 1 to 67 with the following differences: The rate of application was 2 lb/acre (2.24 kg/ha), no 6-day evaluations were made, and the weeds were:
Four grassy weeds: wild oat, watergrass, green foxtail and crabgrass (Digitaria sanguinalis);
(§6) Ratings were taken 2-3 weeks after treatment.

[10] = test system: three broadleaf weeds: wild mustard, redroot pigweed and curly dock; assay: Pre-emergence herbicidal activity, broadleaf weeds (Table III); type: in vivo, Brassica kaber, Amaranthus retroflexus, Rumex crispus; settings: 2.24 kg/ha, 2-3 weeks after treatment
Method: as §1, §2, §3, §4, §5
Three broadleaf weeds: wild mustard, redroot pigweed (Amaranthus retroflexus) and curly dock (Rumex crispus).
as §6

Compound	% Control, Post-emergence, GR avg. [1]	% Control, Pre-emergence, BL avg. [2]	% Control, Post-emergence, BL avg. [3]	% Control, Pre-emergence, GR avg. [4]	% Control, Pre-emergence, NS (yellow nutsedge [5])	% Control, Post-emergence, NS (yellow nutsedge [6])	% Control, Post-Emergence, GR Avg. [7]	% Control, Post-Emergence, BL Avg. [8]	% Control, Pre-Emergence, GR Avg. [9]	% Control, Pre-Emergence, BL Avg. [10]
CCCSP(=O)(N(CCC)CCC)N(C)c1cccc([N+](=O)[O-])c1 (centres unmarked) [Compound 44]	10%	0%	53%	0%	0%	0%	–	–	–	–
CCCCN(CCCC)P(=O)(SCCC)N(C(C)C)C(C)C (centres unmarked) [Compound 28]	10% and 7%	0%	–	0%	0%	0%	–	–	–	–
CCCSP(=O)(N(CCC)CCC)N(C)c1ccccc1C (centres unmarked) [Compound 14]	60% and 73%	33%	60% and 67%	30%	0%	5% and 0%	–	–	–	–
CCCSP(=O)(N(CC)CC)N(C(C)C)C(C)C (centres unmarked) [Compound 29]	10% and 7%	0%	–	0%	0%	0%	–	–	–	–
CCCSP(=O)(N(CCC)CCC)N(C)c1ccc(Cl)cc1 (centres unmarked) [Compound 16]	33% and 47%	0%	43% and 73%	0%	0%	0%	–	–	–	–
CCCSP(=O)(N(CCC)CCC)N(C)c1ccc(OC)cc1 (centres unmarked) [Compound 10]	30% and 23%	0%	80%	0%	9%	10% and 0%	–	–	–	–
CCCSP(=O)(N(C)c1ccc(F)cc1)N(C)c1ccc(F)cc1 [Compound 45]	50% and 75%	0%	90% and 92%	0%	0%	0% and 10%	–	–	–	–
CCCSP(=O)(N(CCC)CCC)N(C)c1ccc(F)c(F)c1 (centres unmarked) [Compound 30]	5% and 0%	0%	80% and 97%	0%	0%	0%	–	–	–	–
CCCSP(=O)(N(CCC)CCC)N(C)c1cc(F)c(F)cc1F (centres unmarked) [Compound 48]	80% and 40%	0%	90% and 80%	0%	0%	0%	–	–	–	–
CCCSP(=O)(N(CCC)CCC)N(CCC)c1ccc(C(C)C)cc1 (centres unmarked) [Compound 59]	10% and 6%	0%	50% and 55%	0%	0%	0%	–	–	–	–
CCCSP(=O)(N(CCC)CCC)N(C)c1cc(OC)cc(OC)c1 (centres unmarked) [Compound 43]	10%	0%	–	0%	0%	0%	–	–	–	–
CCCSP(=O)(N(CCC)CCC)N(C)c1ccc(F)cc1 (centres unmarked) [Compound 32]	10% and 3%	0%	–	0%	0%	0%	–	–	–	–
CCCSP(=O)(N(CCC)CCC)N(C)c1ccccc1 (centres unmarked) [Compound 27]	20% and 40%	0%	–	0%	0%	0% and 5%	–	–	–	–
CCCSP(=O)(N(CCC)CCC)N(C)c1ccc(F)c(Cl)c1 (centres unmarked) [Compound 31]	10% and 5%	0%	–	0%	0%	0%	–	–	–	–
CCCSP(=O)(N(CCC)CCC)N(C)c1ccccc1F (centres unmarked) [Compound 33]	5% and 0%	0%	–	0%	0%	0%	–	–	–	–
CCCCN(CC)P(=O)(SC(C)C)N(CCC)CCC (centres unmarked) [Compound 91]	–	–	–	–	–	–	84%	99%	0%	3%
CCCCSP(=O)(N(CC)CC)N(CCCC)CCCC (centres unmarked) [Compound 86]	–	–	–	–	–	–	77%	99%	5%	7%
CCCCCCSP(=O)(N(CC)CCCC)N(CCC)CCC (centres unmarked) [Compound 135]	–	–	–	–	–	–	54%	96%	0%	10%
CCCCN(CCCC)P(=O)(SC(C)(C)C)N(CCC)CCC (centres unmarked) [Compound 128]	–	–	–	–	–	–	38%	80%	0%	0%
CCCCSP(=O)(N(CC)CC)N(CC)CC [Compound 69]	–	–	–	–	–	–	30%	87%	13%	0%
CCCCSP(=O)(N(CC)CCCC)N(CCC)CCC (centres unmarked) [Compound 90]	–	–	–	–	–	–	86%	100%	0%	7%
